Two molecules from patent US20030207863A1, “Preventives and remedies for central nervous system diseases” (priority 2000, published 2003) can be followed below.

In the assay the test system is IMR32 cells. Description: Amyloid β protein in culture supernatant of IMR32 cells after addition of urotensin II, by enzyme immunoassay. The class given is cell-based. Conditions: cultured 24 hours. As to the method: Test compound 1 was added to IMR32 cells at various concentrations (μM) 10 minutes before addition of 10 nM of urotensin II. Then, urotensin II was added in the presence or absence of test compound 1, the mixture was cultured for 24 hours, and the amount of amyloid β protein in the supernatant of the culture was determined by enzyme immunoassay (Biochemistry, Vol.34, No.32, pp. 10272-10278, (1995)). Test compound 2 as described hereinafter (the compound of Synthesis Example 5) was used and added at a concentration of 1 nM, and the amount of amyloid β protein was determined in the same manner as that of Experimental Example 1. Namely, IMR32 cells were used and test compound 2 was added at a concentration of 1 nM 10 minutes before addition of 10 nM of urotensin II. After addition of urotensin II, the mixture was cultured for 24 hours and the amount of amyloid β protein in the supernatant of the culture was determined by enzyme immunoassay.

The structures appear in SMILES notation.

Take `Cc1ccc2nc3c(c(N)c2c1)CCN3Cc1ccccc1` [test compound 1]: for the setting “test compound at various concentrations (μM) added 10 minutes before 10 nM urotensin II, FIG. 1”, the “suppression of increase in the selective secretion of amyloid β40 by urotensin II” value is given as “concentration-dependently suppressed”.
Regarding `Cl.NS(=O)(=O)c1ccc(CCN(Cc2cccc(-c3cccc(C(=O)NCCN4CCCC4)c3)c2)C(=O)CCCc2ccccc2)cc1` [test compound 2, 3′-{({2-[4-(Aminosulfonyl)phenyl]ethyl}[4-phenylbutanoyl]amino)methyl}-N-[2-(1-pyrrolidinyl)ethyl][1,1′-biphenyl]-3-carboxamide Hydrochloride], for the setting “test compound at 1 nM added 10 minutes before 10 nM urotensin II, FIG. 2”, the “suppression of increase of amyloid β40 by urotensin II” value is on record as “completely suppressed”.
